According to patent US8993765B2, “Tetrahydro-azacarboline MCH-1 antagonists, methods of making, and uses thereof” (Albany Molecular Research, Inc., priority 2010, dated 2015):
Counter-ions that a name gives are not always drawn.

System: not given
Assay: not given
Conditions: not given

Row | melting point | SMILES
1 | 252 to 256 °C | CC1Cc2c(c3ccc(N4CCN(CCc5ccc(F)cc5)CC4=O)nc3n2C)CN1.Cl (stereo not shown) [Example 12, 1-(7,9-Dimethyl-5,7,8,9-tetrahydro-6H-pyrido[3′,4′:4,5]pyrrolo[2,3-b]pyridin-2-yl)-4-(4-fluorophenethyl)piperazin-2-one hydrochloride]
2 | 285 to 289 °C | CC1Cc2c(c3ccc(-n4ccc(OCc5ccccc5)cc4=O)nc3n2C)CN1.Cl (stereo not shown) [Example 13, 4-(Benzyloxy)-1-(7,9-dimethyl-5,7,8,9-tetrahydro-6H-pyrido[3′,4′:4,5]pyrrolo[2,3-b]pyridin-2-yl)pyridin-2(1H)-one hydrochloride]
3 | 206 to 210 °C | Cl.Cn1c2c(c3ccc(-n4ccc(OCc5ccc(F)cc5F)cc4=O)nc31)CNCC2 [Example 16, 4-((2,4-Difluorophenyl)methoxy)-1-(9-methyl-5,7,8,9-tetrahydro-6H-pyrido[3′,4′:4,5]pyrrolo[2,3-b]pyridin-2-yl)pyridin-2(1H)-one hydrochloride]
4 | 288 to 292 °C | CC1Cc2c(c3ccc(-n4ccc(OCc5ccc(F)cn5)cc4=O)nc3n2C)CN1.Cl (stereo not shown) [Example 14, 1-(7,9-Dimethyl-5,7,8,9-tetrahydro-6H-pyrido[3′,4′:4,5]pyrrolo[2,3-b]pyridin-2-yl)-4-((5-fluoropyridin-2-yl)methoxy)pyridin-2(1H)-one hydrochloride]
5 | 278 to 281 °C (dec.) | Cl.Cn1c2c(c3ccc(-n4ccc(-c5ccc(C(F)(F)F)cc5)cc4=O)nc31)CNCC2 [Example 10, 1-(9-Methyl-5,7,8,9-tetrahydro-6H-pyrido[3′,4′:4,5]pyrrolo[2,3-b]pyridin-2-yl)-4-(4-(trifluoromethyl)phenyl)pyridin-2(1H)-one hydrochloride]
6 | 265 °C (dec.) | O=c1cc(OCc2ccc(C(F)(F)F)nc2)ccn1-c1ccn2c3c(nc2c1)CCNC3 (as salt: hydrochloride) [Example 25, 1-(1,2,3,4-Tetrahydropyrido[4′,3′:4,5]imidazo[1,2-a]pyridin-7-yl)-4-((6-(trifluoromethyl)pyridin-3-yl)methoxy)pyridin-2(1H)-one hydrochloride]
7 | 265 °C (dec.) | O=c1cc(-c2ccc(C(F)(F)F)nc2)ccn1-c1ccn2c3c(nc2c1)CCNC3 (as salt: hydrochloride) [Example 24, 1-(1,2,3,4-Tetrahydropyrido[4′,3′:4,5]imidazo[1,2-a]pyridin-7-yl)-4-(6-(trifluoromethyl)pyridin-3-yl)pyridin-2(1H)-one hydrochloride]

Biological target: human MCH-1 receptor (Homo sapiens (Human), UniProt Q99705)
Sequence (Q99705 whole entry): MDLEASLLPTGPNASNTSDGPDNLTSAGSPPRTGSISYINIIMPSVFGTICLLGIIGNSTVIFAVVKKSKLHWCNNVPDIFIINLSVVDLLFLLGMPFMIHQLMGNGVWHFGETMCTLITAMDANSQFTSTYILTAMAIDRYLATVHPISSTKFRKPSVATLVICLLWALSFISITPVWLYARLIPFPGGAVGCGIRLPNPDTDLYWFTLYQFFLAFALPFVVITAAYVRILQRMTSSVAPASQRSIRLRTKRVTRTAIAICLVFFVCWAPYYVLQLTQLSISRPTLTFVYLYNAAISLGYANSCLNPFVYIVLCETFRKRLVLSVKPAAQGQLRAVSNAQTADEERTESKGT
Assay: Binding Assay for Human Melanin-Concentrating Hormone (MCH-1) Receptor
Conditions: @ 1 uM test compound; membranes of CHO-K1 cells expressing human MCH-1 receptor; read-out: MCH1 percent inhibition of control radioligand specific binding
Method: Binding Assay for Human Melanin-Concentrating Hormone (MCH-1) Receptor
Evaluation of the affinity of compounds for the human MCH-1 receptor was accomplished using 4-(3,4,5-tritritiumbenzyloxy)-1-(1-(2-(pyrrolidin-1-yl)ethyl)-1H-indazol-5-yl)pyridin-2(1H)-one and membranes prepared from stable CHO-K1 cells expressing the human MCH-1 receptor obtained from Euroscreen (Batch 1138). Cell membrane homogenates (8.92 μg protein) were incubated for 60 min at 25° C. with […] of the [^3H]-labeled compound in the absence or presence of the test compound in 50 mM Tris-HCl buffer, pH 7.4. Nonspecific binding was determined in the presence of 50 μM 1-(5-(4-cyanophenyl)bicyclo[3.1.0]hexan-2-yl)-3-(4-fluoro-3-(trifluoromethyl)phenyl)-1-(3-(4-methylpiperazin-1-yl)propyl)urea. Following incubation, the samples were filtered rapidly under vacuum through Skatron 11731 filters, pre-soaked in 0.5% polyethylenimine, and washed with ice-cold 50 mM Tris-HCl buffer, pH 7.4, (wash setting 9,9,0) using a Skatron cell harvester. The filters were counted for radioactivity in a liquid scintillation counter (Tri-Carb 2100TR, Packard) using a scintillation cocktail (Ultima Gold MV, Perkin Elmer).
The results are expressed as a percent inhibition of the control radioligand specific binding. The IC50 value (concentration causing a half-maximal inhibition of control specific binding) and Hill coefficient (nH) were determined by non-linear regression analysis of the competition curve using Hill equation curve fitting. The inhibition constant (Ki) was calculated from the Cheng Prusoff equation: (Ki=IC50/(1+(L/KD)), where L=concentration of radioligand in the assay, and KD=affinity of the radioligand for the receptor.

Row | inhibition at 1 µM [%] | SMILES
8 | 61 | O=c1cc(-c2ccc(C(F)(F)F)cc2)ccn1-c1ccc2c(c1)nc1n2CCNC1 [Example 20, 1-(1,2,3,4-Tetrahydropyrazino[1,2-a]benzimidazol-8-yl)-4-(4-(trifluoromethyl)phenyl)pyridin-2(1H)-one hydrochloride]

Same assay, conditions: radioligand displacement, membranes of CHO-K1 cells expressing human MCH-1 receptor; Ki by Cheng Prusoff equation; hydrochloride; read-out: MCH1 Ki

Row | Ki [nM] | SMILES
9 | 9.3 | CC1Cc2c(c3ccc(-n4ccc(OCc5ccccc5)cc4=O)nc3n2C)CN1.Cl (stereo not shown) [Example 13, 4-(Benzyloxy)-1-(7,9-dimethyl-5,7,8,9-tetrahydro-6H-pyrido[3′,4′:4,5]pyrrolo[2,3-b]pyridin-2-yl)pyridin-2(1H)-one hydrochloride]
10 | 9.1 | CC1Cc2c(c3ccc(-n4ccc(OCc5ccccc5)cc4=O)nc3n2C)CN1 (single isomer, unassigned; (-)) [Example 17, (−)-4-(Benzyloxy)-1-(7,9-dimethyl-5,7,8,9-tetrahydro-6H-pyrido[3′,4′:4,5]pyrrolo[2,3-b]pyridin-2-yl)pyridin-2(1H)-one hydrochloride]

Same assay, conditions: radioligand displacement, membranes of CHO-K1 cells expressing human MCH-1 receptor; Ki by Cheng Prusoff equation; read-out: MCH1 Ki

Row | Ki [nM] | SMILES
11 | 19 | CC(C)N1CCc2nc3cc(-n4ccc(OCc5ccccc5)cc4=O)ccn3c2C1 [Example 27, 4-(Benzyloxy)-1-(2-(propan-2-yl)-1,2,3,4-tetrahydropyrido[4′,3′:4,5]imidazo[1,2-a]pyridin-7-yl)pyridin-2(1H)-one hydrochloride]
12 | 616 | O=c1cc(-c2ccc(C(F)(F)F)nc2)ccn1-c1ccn2c3c(nc2c1)CCNC3 [Example 24, 1-(1,2,3,4-Tetrahydropyrido[4′,3′:4,5]imidazo[1,2-a]pyridin-7-yl)-4-(6-(trifluoromethyl)pyridin-3-yl)pyridin-2(1H)-one hydrochloride]
13 | 58 | CC1Cc2c(c3ccc(N4CCN(CCc5ccc(F)cc5)CC4=O)nc3n2C)CN1.Cl (stereo not shown) [Example 12, 1-(7,9-Dimethyl-5,7,8,9-tetrahydro-6H-pyrido[3′,4′:4,5]pyrrolo[2,3-b]pyridin-2-yl)-4-(4-fluorophenethyl)piperazin-2-one hydrochloride]
14 | 103 | Cn1c2c(c3ccc(-n4ccc(OCc5ccccc5)cc4=O)nc31)C(=O)NCC2 [Example 28, 4-(Benzyloxy)-1-(9-methyl-5-oxo-5,7,8,9-tetrahydro-6H-pyrido[3′,4′:4,5]pyrrolo[2,3-b]pyridin-2-yl)pyridin-2(1H)-one]
15 | 15 | Cn1c2c(c3ccc(-n4ccc(-c5ccc(C(F)(F)F)nc5)cc4=O)nc31)CNCC2 [Example 6, 1-(9-Methyl-5,7,8,9-tetrahydro-6H-pyrido[3′,4′:4,5]pyrrolo[2,3-b]pyridin-2-yl)-4-(6-(trifluoromethyl)pyridin-3-yl)pyridin-2(1H)-one hydrochloride]
16 | 8.3 | Cl.Cn1c2c(c3ccc(-n4ccc(OCc5ccc(F)cc5F)cc4=O)nc31)CNCC2 [Example 16, 4-((2,4-Difluorophenyl)methoxy)-1-(9-methyl-5,7,8,9-tetrahydro-6H-pyrido[3′,4′:4,5]pyrrolo[2,3-b]pyridin-2-yl)pyridin-2(1H)-one hydrochloride]
17 | 25 | CC1Cc2c(c3ccc(-n4ccc(OCc5ccc(F)cn5)cc4=O)nc3n2C)CN1.Cl (stereo not shown) [Example 14, 1-(7,9-Dimethyl-5,7,8,9-tetrahydro-6H-pyrido[3′,4′:4,5]pyrrolo[2,3-b]pyridin-2-yl)-4-((5-fluoropyridin-2-yl)methoxy)pyridin-2(1H)-one hydrochloride]
18 | 30 | O=c1cc(OCc2ccc(F)cn2)ccn1-c1ccn2c3c(nc2c1)CCNC3 [Example 23, 4-((5-Fluoropyridin-2-yl)methoxy)-1-(1,2,3,4-tetrahydropyrido[4′,3′:4,5]imidazo[1,2-a]pyridin-7-yl)pyridin-2(1H)-one hydrochloride]
19 | 105 | Cn1c2c(c3ccc(-n4ccc(-c5ccc(C(F)(F)F)nn5)cc4=O)nc31)CNCC2 [Example 5, 1-(9-Methyl-5,7,8,9-tetrahydro-6H-pyrido[3′,4′:4,5]pyrrolo[2,3-b]pyridin-2-yl)-4-(6-(trifluoromethyl)pyridazin-3-yl)pyridin-2(1H)-one hydrochloride]
20 | 4.7 | Cl.Cn1c2c(c3ccc(-n4ccc(-c5ccc(C(F)(F)F)cc5)cc4=O)nc31)CNCC2 [Example 10, 1-(9-Methyl-5,7,8,9-tetrahydro-6H-pyrido[3′,4′:4,5]pyrrolo[2,3-b]pyridin-2-yl)-4-(4-(trifluoromethyl)phenyl)pyridin-2(1H)-one hydrochloride]
21 | 15 | Cn1c2c(c3ccc(-n4ccc(OCc5ccc(F)cn5)cc4=O)nc31)CNCC2 [Example 4, 4-((5-Fluoropyridin-2-yl)methoxy)-1-(9-methyl-5,7,8,9-tetrahydro-6H-pyrido[3′,4′:4,5]pyrrolo[2,3-b]pyridin-2-yl)pyridin-2(1H)-one hydrochloride]
22 | 33 | Cn1c2c(c3ccc(-n4ccc(-c5ccc(C(F)(F)F)cn5)cc4=O)nc31)CNCC2 [Example 8, 1-(9-Methyl-5,7,8,9-tetrahydro-6H-pyrido[3′,4′:4,5]pyrrolo[2,3-b]pyridin-2-yl)-4-(5-(trifluoromethyl)pyridin-2-yl)pyridin-2(1H)-one hydrochloride]
23 | 47 | Cn1c2c(c3ccc(N4CCN(CCc5ccccc5)CC4=O)nc31)CNCC2 [Example 3, 1-(9-Methyl-5,7,8,9-tetrahydro-6H-pyrido[3′,4′:4,5]pyrrolo[2,3-b]pyridin-2-yl)-4-phenethylpiperazin-2-one dihydrochloride]
24 | 71 | Cn1c2c(c3ccc(-n4ccc(OCc5ccc(C(F)(F)F)nc5)cc4=O)nc31)CNCC2 [Example 7, 1-(9-Methyl-5,7,8,9-tetrahydro-6H-pyrido[3′,4′:4,5]pyrrolo[2,3-b]pyridin-2-yl)-4-((6-(trifluoromethyl)pyridin-3-yl)methoxy)pyridin-2(1H)-one hydrochloride]
25 | 62 | O=c1cc(OCc2ccccc2)ccn1-c1ccc2c(c1)nc1n2CCNC1 [Example 18, 4-(Benzyloxy)-1-(1,2,3,4-tetrahydropyrazino[1,2-a]benzimidazol-8-yl)pyridin-2(1H)-one hydrochloride]
26 | 17 | Cn1c2c(c3ccc(-n4ccc(OCc5ccc(Cl)cc5Cl)cc4=O)nc31)CNCC2 [Example 15, 4-((2,4-Dichlorophenyl)methoxy)-1-(9-methyl-5,7,8,9-tetrahydro-6H-pyrido[3′,4′:4,5]pyrrolo[2,3-b]pyridin-2-yl)pyridin-2(1H)-one hydrochloride]
27 | 81 | CC(=O)N1Cc2c(n(C)c3nc(-n4ccc(OCc5ccccc5)cc4=O)ccc23)CC1C (single isomer, unassigned; enantiomer a) [Example 29, 1-(6-Acetyl-7,9-dimethyl-5,7,8,9-tetrahydro-6H-pyrido[3′,4′:4,5]pyrrolo[2,3-b]pyridin-2-yl)-4-(benzyloxy)pyridin-2(1H)-one (Enantiomer A)]
28 | 7.1 | Cn1c2c(c3ccc(-n4ccc(OCc5ccccc5)cc4=O)nc31)CNCC2 [Example 2, 4-(Benzyloxy)-1-(9-methyl-5,7,8,9-tetrahydro-6H-pyrido[3′,4′:4,5]pyrrolo[2,3-b]pyridin-2-yl)pyridin-2(1H)-one dihydrochloride]
29 | 94 | CC(C)N1CCn2c(nc3cc(-n4ccc(OCc5ccccc5)cc4=O)ccc32)C1 [Example 21, 4-(Benzyloxy)-1-(2-(propan-2-yl)-1,2,3,4-tetrahydropyrazino[1,2-a]benzimidazol-8-yl)pyridin-2(1H)-one hydrochloride]
30 | 3320 | O=c1cc(OCc2ccc(C(F)(F)F)nc2)ccn1-c1ccn2c3c(nc2c1)CCNC3 [Example 25, 1-(1,2,3,4-Tetrahydropyrido[4′,3′:4,5]imidazo[1,2-a]pyridin-7-yl)-4-((6-(trifluoromethyl)pyridin-3-yl)methoxy)pyridin-2(1H)-one hydrochloride]

Row | SMILES | Ki [nM]
31 | O=c1cc(-c2ccc(C(F)(F)F)cc2)ccn1-c1ccn2c3c(nc2c1)CCNC3 [Example 26, 1-(1,2,3,4-Tetrahydropyrido[4′,3′:4,5]imidazo[1,2-a]pyridin-7-yl)-4-(4-(trifluoromethyl)phenyl)pyridin-2(1H)-one hydrochloride] | 23
